The record followed here is ChEMBL document CHEMBL6103656, “Discovery of BT-114143, a Novel and Potent Phosphoric Acid-Containing Small-Molecule Plasminogen Activation Inhibitor for Hyperfibrinolysis” (J Med Chem, 2025).

One data set has as its system Blood. Briefly: Ratio of compound IC50 to TXA IC50 in anti-fibrinolytic activity in healthy human fresh blood by plasma clot lysis. In kind it is functional.
Data set [1] relates to Rattus norvegicus. Briefly: Hemostatic effect in rt-PA enhanced Sprague-Dawley rat tail bleeding model assessed as reduction in tail bleeding time at 5 mg/kg infused into right jugular vein. Particulars: route iv. The class given is functional, organism-based.
Data set [2] can be described thus: Volume of distribution at steady state in Sprague-Dawley rat at 1 mg/kg, iv measured upto 24 hrs by LC-MS/MS analysis. In kind it is ADME, organism-based. The conditions noted are these: in vivo, read-out: Vdss.
Data set [3] concerns the target Tissue-type plasminogen activator (Homo sapiens) (UniProt P00750). Nature of the data set: Inhibition of recombinant human tissue plasminogen activator (rt-PA)-induced fibrinolysis in human fresh whole blood assessed as thrombus dissolution within 30 mins after reaching maximum amplitude (LY30) by thromboelastography analysis. In kind it is functional, tissue-based.

Data set [4] is described as follows: Volume of distribution at steady state in beagle dog at 1 mg/kg, iv measured upto 24 hrs by LC-MS/MS analysis. Particulars: in vivo, read-out: Vdss. In kind it is ADME, organism-based, Canis lupus familiaris.
The nature of data set [5]: Half life in beagle dog at 1 mg/kg, iv measured upto 24 hrs by LC-MS/MS analysis. The class given is ADME, organism-based, Canis lupus familiaris. Particulars: in vivo.
The nature of data set [6]: Half life in Sprague-Dawley rat at 1 mg/kg, iv measured upto 24 hrs by LC-MS/MS analysis. In kind it is ADME, organism-based. Particulars: in vivo.
The nature of data set [7]: AUC (0 to infinity) in beagle dog at 1 mg/kg, iv measured upto 24 hrs by LC-MS/MS analysis. The class given is ADME, organism-based, Canis lupus familiaris. Particulars: in vivo.
For another data set, the species on record is Homo sapiens. Briefly: (§1) Inhibition of Plasminogen (unknown origin) binding to fibrin (unknown origin) interaction by surface plasmon resonance (SPR) analysis. Background: In SPR one partner is held on a chip, and binding of the other changes the refractive index at the surface.
Data set [8] in a line: as §1. Also on record: species or system Homo sapiens.
Data set [9] is described as follows: Clearance in beagle dog at 1 mg/kg, iv measured upto 24 hrs by LC-MS/MS analysis. In kind it is ADME, organism-based, Canis lupus familiaris. Particulars: in vivo.
The test system of data set [10] is Rattus norvegicus. Briefly: Hemostatic effect in rt-PA enhanced Sprague-Dawley rat tail bleeding model assessed as reduction in tail bleeding time at 40 mg/kg infused into right jugular vein. In kind it is functional, organism-based. Particulars: route iv.
A short description of data set [11]: Clearance in Sprague-Dawley rat at 1 mg/kg, iv measured upto 24 hrs by LC-MS/MS analysis. The class given is ADME, organism-based. Particulars: in vivo.
Data set [12] can be described thus: AUC (0 to infinity) in Sprague-Dawley rat at 1 mg/kg, iv measured upto 24 hrs by LC-MS/MS analysis. The class given is ADME, organism-based. Particulars: in vivo.
The target in data set [13] is Tissue-type plasminogen activator (Rattus norvegicus) (UniProt P19637). Briefly: Inhibition of recombinant tissue plasminogen activator (rt-PA)-induced fibrinolysis in Sprague-Dawley rat fresh whole blood assessed as thrombus dissolution within 30 mins after reaching maximum amplitude (LY30) at > 3 uM by thromboelastography analysis. The class given is functional, tissue-based.

Activity calls are given as the source filed them.

Tissue-type plasminogen activator (Rattus norvegicus), sequence (P19637 whole entry): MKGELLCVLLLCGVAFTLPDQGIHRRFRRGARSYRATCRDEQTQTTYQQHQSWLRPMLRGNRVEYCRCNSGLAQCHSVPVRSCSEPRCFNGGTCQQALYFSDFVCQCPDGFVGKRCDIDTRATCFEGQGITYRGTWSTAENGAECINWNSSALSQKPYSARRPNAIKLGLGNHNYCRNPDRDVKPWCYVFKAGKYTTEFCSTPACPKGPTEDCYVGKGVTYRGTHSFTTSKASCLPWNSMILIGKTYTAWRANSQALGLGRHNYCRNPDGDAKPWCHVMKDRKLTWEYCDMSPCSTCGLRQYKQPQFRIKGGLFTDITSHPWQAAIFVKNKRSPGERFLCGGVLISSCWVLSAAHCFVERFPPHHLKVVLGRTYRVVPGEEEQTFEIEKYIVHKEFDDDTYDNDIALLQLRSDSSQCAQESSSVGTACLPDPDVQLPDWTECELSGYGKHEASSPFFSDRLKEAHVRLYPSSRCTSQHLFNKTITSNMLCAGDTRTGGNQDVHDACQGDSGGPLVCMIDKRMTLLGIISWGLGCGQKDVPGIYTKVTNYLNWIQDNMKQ
Tissue-type plasminogen activator (Homo sapiens), sequence (P00750 36-562 limits assumed): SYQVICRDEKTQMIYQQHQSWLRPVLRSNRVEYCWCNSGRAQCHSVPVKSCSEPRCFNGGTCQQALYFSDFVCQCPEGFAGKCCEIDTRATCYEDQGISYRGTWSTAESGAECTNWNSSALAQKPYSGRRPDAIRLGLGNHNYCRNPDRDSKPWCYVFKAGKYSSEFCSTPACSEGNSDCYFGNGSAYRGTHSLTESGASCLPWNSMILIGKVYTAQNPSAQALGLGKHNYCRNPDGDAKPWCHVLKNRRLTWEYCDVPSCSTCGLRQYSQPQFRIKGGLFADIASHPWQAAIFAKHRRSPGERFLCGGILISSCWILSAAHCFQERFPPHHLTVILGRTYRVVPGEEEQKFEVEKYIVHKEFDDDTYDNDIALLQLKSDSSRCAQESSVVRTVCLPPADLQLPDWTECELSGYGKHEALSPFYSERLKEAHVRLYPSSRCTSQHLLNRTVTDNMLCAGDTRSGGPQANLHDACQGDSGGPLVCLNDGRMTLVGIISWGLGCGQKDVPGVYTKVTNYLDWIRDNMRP

`Cl.O=C(O)c1ccc2c(c1)CCNC2`: the “Ratio IC50” value with Blood came to 0.63.

As to `Cl.O=S(=O)(O)c1ccc2c(n1)CCNC2`, in the data set on Blood, the “Ratio IC50” value was 0.93. On the same count and under the same terms, for `CC(C)(C)CCC1Cc2nc(P(=O)(O)O)ccc2CN1.Cl` (mixture of isomers) the value was 0.1; for `Cl.O=P(O)(O)c1ccc2c(n1)C(N1CC[S+]([O-])CC1)CNC2` (mixture of isomers), 0.17; for `CCOP(=O)(O)c1ccc2c(n1)CCNC2.Cl`, 0.29.

On to `Cl.O=P(O)(O)c1ccc2c(n1)C(N1CCS(=O)(=O)CC1)CNC2` (mixture of isomers), for which the “Ratio IC50” value in the data set with Blood is given as 0.25. Take `Cl.O=P(O)(Cc1ccccc1)c1ccc2c(n1)CCNC2`: the “Ratio IC50” value with Blood is recorded as 1.29.

`Cl.O=C(O)c1nc2c(s1)CNCC2`: the “Ratio IC50” value in the data set with Blood is given as 0.94. Regarding `Cl.O=P(O)(O)c1ccc2c(n1)C(N1CCOCC1)CNC2` (mixture of isomers), in the data set with Blood, the “Ratio IC50” value is on record as 0.3.

`CN(C)S(=O)(=O)NC(=O)c1ccc2c(n1)CCNC2.Cl`: the “Ratio IC50” value with Blood is reported as 0.99.

On to `NCCCCCC(=O)O`, for which the outcome in the data set with Rattus norvegicus [1] was inactive. Take `Cl.O=C(O)c1cnc2c(c1)CCNC2`: the “Ratio IC50” value in the data set on Blood was 2.16. On the same count and under the same terms, for `Cl.O=C(O)c1cc2c(cn1)CNCC2` the value was 4.33. Still for that read-out and setting: the figure for `CC(C)C1Cc2nc(P(=O)(O)O)ccc2CN1.Cl` (mixture of isomers) is 0.14. Same read-out and setting: for `CCP(=O)(O)c1ccc2c(n1)CCNC2.Cl` the value was 0.86; for `Cl.O=c1[nH]c(-c2ccc3c(n2)CCNC3)no1`, 0.86. Take `Cl.NC(=O)NC(=O)c1ccc2c(n1)CCNC2`: in the data set with Blood, the “Ratio IC50” value was above 10. On the same count and under the same terms, for `CC(C)CCC1Cc2nc(P(=O)(O)O)ccc2CN1.Cl` (mixture of isomers) the value was 0.09; for `CCCC1Cc2nc(P(=O)(O)O)ccc2CN1.Cl` (mixture of isomers), 0.2. Still for that read-out and setting: the figure for `Cl.O=C(O)c1ccc2c(n1)CCNC2` is 0.25; for `Cl.O=P(O)(O)c1ccc2c(n1)C(N1CCSCC1)CNC2` (mixture of isomers) it is 0.21.

Turning to `Cl.O=P(O)(CCc1ccccc1)c1ccc2c(n1)CCNC2`, the “Ratio IC50” value in the data set on Blood was found to be 0.36. Still for that read-out and setting: the figure for `CC(C)(C)C[C@H]1C[C@@H](c2cc(=O)[nH]o2)CCN1.Cl` is 0.15; for `Cl.O=C(O)c1cc2c(s1)CNCC2` it is 1.36; for `Cl.O=P(O)(O)c1ccc2c(n1)CC(CCc1ccccc1)NC2` (mixture of isomers) it is 0.2. Still for that read-out and setting: the figure for `Cl.NS(=O)(=O)c1ccc2c(n1)CCNC2` is 4.26; for `CC(C)CC1Cc2nc(P(=O)(O)O)ccc2CN1.Cl` (mixture of isomers) it is 0.08.

As to `Cl.O=C(O)c1nc2c(s1)CCNC2`, the “Ratio IC50” value in the data set with Blood is listed as above 10. Same read-out and setting: for `Cl.O=P(O)(O)c1ccc2c(n1)CC(Cc1ccccc1)NC2` (mixture of isomers) the value was 0.75; for `Cl.O=P(O)(c1ccccc1)c1ccc2c(n1)CCNC2`, 0.2. Turning to `NC[C@H]1CC[C@H](C(=O)O)CC1` [TRANEXAMIC ACID], the Vd in [2] is 0.296 L/kg; in data set [4], 0.587 L/kg. For the same molecule, the IC90 (commonly the concentration at which the effect reaches the 90% level) in data set [3] is 10.1 µM; in the data set filed under Homo sapiens, 78.7 µM. The half-life – broadly, the time needed for the level to fall by half in the phase considered – in [5] was 5.34 h; in [6], 1.28 h. For the same molecule, the AUC(0-inf) (usually total exposure, with the tail of the curve extrapolated) came to 6680 ng·h/mL in [7] and 2820 ng·h/mL in data set [12]. The half-maximal inhibitory concentration (IC50) (usually the concentration at which inhibition is half-maximal) in data set [8] was determined as 5.33 µM. For the same molecule, the outcome with Rattus norvegicus [1] and in the data set on Rattus norvegicus [10] was Active. Further, the figures for the clearance in data set [9] and in [11] were 2.46 mL/min/kg and 5.78 mL/min/kg, respectively. Moreover, the inhibition result in data set [13] was “Active”. `CS(=O)(=O)NC(=O)c1ccc2c(n1)CCNC2.Cl`: the “Ratio IC50” value with Blood is 2.06. Same read-out and setting: for `CC(=O)NS(=O)(=O)c1ccc2c(n1)CCNC2.Cl` the value was above 10; for `CC(C)(C)CC1Cc2nc(P(=O)(O)O)ccc2CN1.Cl` (mixture of isomers), 0.19; for `Cl.c1cc2c(nc1-c1nnn[nH]1)CCNC2`, 0.9.

As for `Cl.O=C(O)c1nc2c([nH]1)CCNC2`, in the data set with Blood, the “Ratio IC50” value is reported as above 10.
